Measurements: the supplement of paper PMC10307832

What was measured:
Test in all cases: relative viability (nuclei count vs DMSO), 5 days (fraction); higher = more cells survive
[1] = compound: C1CC2=C(C1)C=C(C=C2)OC3=NC(=C4C(=N3)N(C=N4)CC5=CC=C(C=C5)C6=CC=CC=C6)N[C@@H](CC7=CC=CC=C7)CO [QS11] + O=C(CCCCCCC(=O)Nc1ccccc1)NO [Vorinostat] (partner 1 µM)
Procedure, shortened: (§1)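 Lung cancer cell lines in 1536-well plates were dosed by pin tool the day after seeding, either with one drug alone or with a fixed anchor-drug dose plus five library-drug doses (not always all listed) in √10 steps. After 5 days, cells were fixed and their nuclei stained in one step (final 0.05% Triton X-100, 1% formaldehyde, 1 ug/ml Hoechst), then counted on 4× images. Relative viability is the nuclei count in treated wells divided by that in vehicle wells. Values are medians of duplicate plates.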

[2] = compound: C[As](C)SC[C@H](NC(=O)CC[C@H](N)C(=O)O)C(=O)NCC(=O)O [Darinaparsin] + Cc1cc(Nc2cc(N3CCN(C)CC3)nc(Sc3ccc(NC(=O)C4CC4)cc3)n2)n[nH]1 [Tozasertib] (partner 0.1 µM)
Procedure, shortened: as §1

[3] = compound: C[As](C)SC[C@H](NC(=O)CC[C@H](N)C(=O)O)C(=O)NCC(=O)O [Darinaparsin] + O=C(c1cc(Cc2n[nH]c(=O)c3ccccc23)ccc1F)N1CCN(C(=O)C2CC2)CC1 [Olaparib] (partner 8 µM)
Procedure, shortened: as §1

[4] = compound: C1CC2=C(C1)C=C(C=C2)OC3=NC(=C4C(=N3)N(C=N4)CC5=CC=C(C=C5)C6=CC=CC=C6)N[C@@H](CC7=CC=CC=C7)CO [QS11] + Nc1nc2[nH]cc(CCc3ccc(C(=O)N[C@@H](CCC(=O)O)C(=O)O)cc3)c2c(=O)[nH]1 [Pemetrexed] (partner 0.2 µM)
Procedure, shortened: as §1

**Q.** With RERF-LC-KJ as the cell line, how does the relative viability ([1]; first compound 0.08 µM) read?
**A.** 0.643

**Q.** What about the relative viability ([1]; first compound 0.253 µM) of the same cell line?
**A.** 0.628

**Q.** And the relative viability ([1]; first compound 0.8 µM)?
**A.** 0.523

**Q.** And the relative viability ([1]; first compound 2.53 µM)?
**A.** 0.664

**Q.** What about the relative viability ([1]; first compound 8 µM) of the same cell line?
**A.** 0.566

**Q.** And the relative viability ([2]; first compound 0.08 µM)?
**A.** 0.482

**Q.** What about the relative viability ([2]; first compound 0.8 µM) of the same cell line?
**A.** 0.483

**Q.** What about the relative viability ([2]; first compound 2.53 µM) of the same cell line?
**A.** 0.447

**Q.** What about the relative viability ([2]; first compound 8 µM) of the same cell line?
**A.** 0.472

**Q.** What about the relative viability ([3]; first compound 0.08 µM) of the same cell line?
**A.** 1.12

**Q.** And the relative viability ([3]; first compound 0.8 µM)?
**A.** 0.859

**Q.** What about the relative viability ([3]; first compound 2.53 µM) of the same cell line?
**A.** 0.924

**Q.** And the relative viability ([3]; first compound 8 µM)?
**A.** 0.775

**Q.** And the relative viability ([4]; first compound 0.08 µM)?
**A.** 0.51

**Q.** What about the relative viability ([4]; first compound 0.253 µM) of the same cell line?
**A.** 0.461

**Q.** What about the relative viability ([4]; first compound 0.8 µM) of the same cell line?
**A.** 0.443

**Q.** What about the relative viability ([4]; first compound 2.53 µM) of the same cell line?
**A.** 0.482

**Q.** What about the relative viability ([4]; first compound 8 µM) of the same cell line?
**A.** 0.439

**Q.** Which results are given for HCC-78?
**A.** relative viability ([1]; first compound 0.08 µM): 0.4; relative viability ([1]; first compound 0.253 µM): 0.48; relative viability ([1]; first compound 0.8 µM): 0.518; relative viability ([1]; first compound 2.53 µM): 0.46; relative viability ([1]; first compound 8 µM): 0.444; relative viability ([2]; first compound 0.08 µM): 0.449; relative viability ([2]; first compound 0.8 µM): 0.461; relative viability ([2]; first compound 2.53 µM): 0.386; relative viability ([2]; first compound 8 µM): 0.491; relative viability ([3]; first compound 0.08 µM): 0.884; relative viability ([3]; first compound 0.8 µM): 0.712; relative viability ([3]; first compound 2.53 µM): 0.851; relative viability ([3]; first compound 8 µM): 0.955; relative viability ([4]; first compound 0.08 µM): 0.918; relative viability ([4]; first compound 0.253 µM): 0.935; relative viability ([4]; first compound 0.8 µM): 0.894; relative viability ([4]; first compound 2.53 µM): 0.936; relative viability ([4]; first compound 8 µM): 0.857

**Q.** With NCI-H2087 as the cell line, how does the relative viability ([1]; first compound 0.08 µM) read?
**A.** 1.03

**Q.** What about the relative viability ([1]; first compound 0.253 µM) of the same cell line?
**A.** 0.667

**Q.** And the relative viability ([1]; first compound 0.8 µM)?
**A.** 0.599

**Q.** And the relative viability ([1]; first compound 2.53 µM)?
**A.** 0.625

**Q.** What about the relative viability ([1]; first compound 8 µM) of the same cell line?
**A.** 0.665

**Q.** And the relative viability ([2]; first compound 0.08 µM)?
**A.** 0.243

**Q.** What about the relative viability ([2]; first compound 0.8 µM) of the same cell line?
**A.** 0.246

**Q.** And the relative viability ([2]; first compound 2.53 µM)?
**A.** 0.254

**Q.** What about the relative viability ([2]; first compound 8 µM) of the same cell line?
**A.** 0.22

**Q.** What about the relative viability ([3]; first compound 0.08 µM) of the same cell line?
**A.** 0.797

**Q.** What about the relative viability ([3]; first compound 0.8 µM) of the same cell line?
**A.** 0.527

**Q.** And the relative viability ([3]; first compound 2.53 µM)?
**A.** 0.572

**Q.** What about the relative viability ([3]; first compound 8 µM) of the same cell line?
**A.** 0.701

**Q.** And the relative viability ([4]; first compound 0.08 µM)?
**A.** 0.646

**Q.** And the relative viability ([4]; first compound 0.253 µM)?
**A.** 0.646

**Q.** What about the relative viability ([4]; first compound 0.8 µM) of the same cell line?
**A.** 0.675

**Q.** What about the relative viability ([4]; first compound 2.53 µM) of the same cell line?
**A.** 0.692

**Q.** What about the relative viability ([4]; first compound 8 µM) of the same cell line?
**A.** 0.757

**Q.** What does the source list for SK-LU-1?
**A.** relative viability ([1]; first compound 0.08 µM): 0.786; relative viability ([1]; first compound 0.253 µM): 0.849; relative viability ([1]; first compound 0.8 µM): 0.604; relative viability ([1]; first compound 2.53 µM): 0.572; relative viability ([1]; first compound 8 µM): 0.614; relative viability ([2]; first compound 0.08 µM): 0.402; relative viability ([2]; first compound 0.8 µM): 0.278; relative viability ([2]; first compound 2.53 µM): 0.294; relative viability ([2]; first compound 8 µM): 0.316; relative viability ([3]; first compound 0.08 µM): 0.613; relative viability ([3]; first compound 0.8 µM): 0.431; relative viability ([3]; first compound 2.53 µM): 0.407; relative viability ([3]; first compound 8 µM): 0.562; relative viability ([4]; first compound 0.08 µM): 0.993; relative viability ([4]; first compound 0.253 µM): 1.07; relative viability ([4]; first compound 0.8 µM): 0.913; relative viability ([4]; first compound 2.53 µM): 0.835; relative viability ([4]; first compound 8 µM): 0.781

**Q.** Which relative viability ([1]; first compound 0.08 µM) does the source give for EMC-BAC-2 here?
**A.** 0.492

**Q.** And the relative viability ([1]; first compound 0.253 µM)?
**A.** 0.434

**Q.** And the relative viability ([1]; first compound 0.8 µM)?
**A.** 0.385

**Q.** And the relative viability ([1]; first compound 2.53 µM)?
**A.** 0.334

**Q.** And the relative viability ([1]; first compound 8 µM)?
**A.** 0.325

**Q.** What about the relative viability ([2]; first compound 0.08 µM) of the same cell line?
**A.** 0.251

**Q.** What about the relative viability ([2]; first compound 0.8 µM) of the same cell line?
**A.** 0.28

**Q.** And the relative viability ([2]; first compound 2.53 µM)?
**A.** 0.299

**Q.** What about the relative viability ([2]; first compound 8 µM) of the same cell line?
**A.** 0.277

**Q.** What about the relative viability ([3]; first compound 0.08 µM) of the same cell line?
**A.** 0.475

**Q.** What about the relative viability ([3]; first compound 0.8 µM) of the same cell line?
**A.** 0.447

**Q.** And the relative viability ([3]; first compound 2.53 µM)?
**A.** 0.614

**Q.** What about the relative viability ([3]; first compound 8 µM) of the same cell line?
**A.** 0.461

**Q.** What about the relative viability ([4]; first compound 0.08 µM) of the same cell line?
**A.** 0.461

**Q.** What about the relative viability ([4]; first compound 0.253 µM) of the same cell line?
**A.** 0.463

**Q.** What about the relative viability ([4]; first compound 0.8 µM) of the same cell line?
**A.** 0.409

**Q.** And the relative viability ([4]; first compound 2.53 µM)?
**A.** 0.594

**Q.** And the relative viability ([4]; first compound 8 µM)?
**A.** 0.445

**Q.** Which results are given for A-427?
**A.** relative viability ([1]; first compound 0.08 µM): 0.902; relative viability ([1]; first compound 0.253 µM): 0.844; relative viability ([1]; first compound 2.53 µM): 0.877; relative viability ([1]; first compound 8 µM): 0.844; relative viability ([2]; first compound 0.08 µM): 0.2; relative viability ([2]; first compound 0.8 µM): 0.215; relative viability ([2]; first compound 2.53 µM): 0.177; relative viability ([2]; first compound 8 µM): 0.193; relative viability ([3]; first compound 0.08 µM): 0.71; relative viability ([3]; first compound 0.8 µM): 0.8; relative viability ([3]; first compound 2.53 µM): 0.787; relative viability ([3]; first compound 8 µM): 0.791; relative viability ([4]; first compound 0.08 µM): 0.967; relative viability ([4]; first compound 0.253 µM): 0.985; relative viability ([4]; first compound 2.53 µM): 0.989; relative viability ([4]; first compound 8 µM): 0.979

**Q.** For NCI-H522, which relative viability ([1]; first compound 0.08 µM) is on record?
**A.** 0.799

**Q.** What about the relative viability ([1]; first compound 0.253 µM) of the same cell line?
**A.** 0.871

**Q.** And the relative viability ([1]; first compound 0.8 µM)?
**A.** 0.766

**Q.** What about the relative viability ([1]; first compound 2.53 µM) of the same cell line?
**A.** 1

**Q.** And the relative viability ([1]; first compound 8 µM)?
**A.** 0.999

**Q.** What about the relative viability ([2]; first compound 0.08 µM) of the same cell line?
**A.** 0.508

**Q.** What about the relative viability ([2]; first compound 0.8 µM) of the same cell line?
**A.** 0.602

**Q.** What about the relative viability ([2]; first compound 2.53 µM) of the same cell line?
**A.** 0.534

**Q.** And the relative viability ([2]; first compound 8 µM)?
**A.** 0.599

**Q.** And the relative viability ([3]; first compound 0.08 µM)?
**A.** 0.621

**Q.** And the relative viability ([3]; first compound 0.8 µM)?
**A.** 0.718

**Q.** And the relative viability ([3]; first compound 2.53 µM)?
**A.** 0.703

**Q.** And the relative viability ([3]; first compound 8 µM)?
**A.** 0.543

**Q.** What about the relative viability ([4]; first compound 0.08 µM) of the same cell line?
**A.** 0.824

**Q.** And the relative viability ([4]; first compound 0.253 µM)?
**A.** 1.02

**Q.** What about the relative viability ([4]; first compound 0.8 µM) of the same cell line?
**A.** 0.878

**Q.** And the relative viability ([4]; first compound 2.53 µM)?
**A.** 1

**Q.** What about the relative viability ([4]; first compound 8 µM) of the same cell line?
**A.** 0.884
